# Data as given in paper PMC3760808, “A New Approach to Control the Enigmatic Activity of Aldose Reductase” (PLoS ONE, 2013).
# Columns and labels:
# purified bovine lens AR [1] = target: T1, purified bovine lens AR (Bos taurus, UniProt P16116); experiment: AR inhibition screening with GAL and HNE as substrates (differential inhibition); format: biochemical; conditions: for inhibitory action on all the tested substrates (in words): substrates GAL, HNE, glucose (and GS-HNE), Figure 4; for GAL/HNE differential inhibition (percentage inhibition with GAL minus percentage inhibition with HNE): 0.11 mM GAL vs 0.11 mM HNE, at inhibitor concentration giving 50% inhibition or maximal concentration tested
# T1 construct: AR was purified from bovine lens to electrophoretic homogeneity as described; from tissue; host or cells: bovine lens
# Description: (§1) If not otherwise specified AR activity was determined at 37°C using 4.7 mM D, L-GAL as a substrate in 0.25 M sodium phosphate buffer pH 6.8 containing 0.38 M ammonium sulfate, 0.5 mM EDTA, and 0.2 mM NADPH. AR was purified from bovine lens to electrophoretic homogeneity as described. […] One unit of enzyme activity is the amount of enzyme that catalyzes the oxidation of 1 µmol of NADPH/min under the above-mentioned conditions. The k cat values were obtained on the basis of a molecular weight of AR of 34 KDa. The purified enzyme was stored at 4°C in a 10 mM sodium phosphate buffer pH 7.0 supplemented by 2 mM dithiothreitol and was extensively dialyzed against a 10 mM sodium phosphate buffer pH 7.0 before use.
# The nominal concentrations of HNE and GS-HNE solutions used as substrates of AR were determined through a colorimetric assay. […] When testing inhibitors that require DMSO to be solubilized, the same concentration of DMSO (0.7% v/v), was used in the assays both in the presence and absence of the inhibitors.
# Thus, the susceptibility of AR to the inhibition exerted by a series of compounds (including some well-known ARIs) was tested at various inhibitor concentrations, using both GAL and HNE as substrates. The results of this screening (Figure 2) are expressed as ”GAL/HNE differential inhibition”, i.e. the difference between the percentage inhibition observed using GAL as a substrate and the percentage inhibition observed using HNE as a substrate. This differential inhibition was calculated at the concentration of the inhibitor leading to 50% inhibition or, when 50% inhibition was not reached, at the maximal concentration tested.
# Bars indicate the difference between the percentage inhibition observed using 0.11 mM GAL as substrate and the percentage inhibition using 0.11 mM HNE (differential inhibition). The difference was calculated at the concentration of the inhibitor leading to a 50% inhibition of the reaction more sensitive to the inhibitor (i.e. the reduction of GAL for compounds displaying a positive differential inhibition and the reduction HNE for compounds displaying a negative differential inhibition) or at the maximal concentration tested if 50% inhibition was not reached. […] Framed numbers (1 to 30) refer to the compounds tested as inhibitors.
# purified bovine lens AR [2] = target: T1, purified bovine lens AR; experiment: AR inhibition with GS-HNE as substrate; format: biochemical
# Description: as §1, with “The purified enzyme was stored at 4°C in a 10 mM sodium phosphate buffer pH 7.0 supplemented by 2 mM dithiothreitol and was extensively dialyzed against a 10 mM sodium phosphate buffer pH 7.0 before use.” left out
# The nominal concentrations of HNE and GS-HNE solutions used as substrates of AR were determined through a colorimetric assay. These values were confirmed by the total decrease in absorbance at 340 nm measured, in the presence of 0.2 mM NADPH, when HNE and GS-HNE were incubated in the presence of 8 and 150 mU of AR, respectively (Figure S1). […]
# Figure 3 Effect of D-glyceramide as differential AR inhibitor. Percentage residual activity was determined at various inhibitor concentrations using the following substrates: 0.11 mM of HNE (squares), GAL (diamonds), GS-HNE (circles) or 7 mM D-glucose (triangles). […]
# Figure 5 Effect of compounds acting as differential AR inhibitors. Percentage residual activity was determined at various inhibitor concentrations using the following substrates: 0.11 mM HNE (squares), GAL (diamonds), GS-HNE (circles) or 7 mM D-glucose (triangles). […]
# purified bovine lens AR [3] = target: T1, purified bovine lens AR; experiment: AR inhibition with D-glucose as substrate; format: biochemical
# Description: as §1
# (§2) The nominal concentrations of HNE and GS-HNE solutions used as substrates of AR were determined through a colorimetric assay. These values were confirmed by the total decrease in absorbance at 340 nm measured, in the presence of 0.2 mM NADPH, when HNE and GS-HNE were incubated in the presence of 8 and 150 mU of AR, respectively (Figure S1). When testing inhibitors that require DMSO to be solubilized, the same concentration of DMSO (0.7% v/v), was used in the assays both in the presence and absence of the inhibitors.
# Figure 3 Effect of D-glyceramide as differential AR inhibitor. Percentage residual activity was determined at various inhibitor concentrations using the following substrates: 0.11 mM of HNE (squares), GAL (diamonds), GS-HNE (circles) or 7 mM D-glucose (triangles). Error bars represent the standard deviations from at least three independent measurements.
# Figure 5 Effect of compounds acting as differential AR inhibitors. Percentage residual activity was determined at various inhibitor concentrations using the following substrates: 0.11 mM HNE (squares), GAL (diamonds), GS-HNE (circles) or 7 mM D-glucose (triangles). Panels a and b refer to compounds 18 and 19, respectively. Error bars represent the standard deviations from at least three completely independent measurements including different enzyme preparations. […]
# bovine lens AR = target: T2, bovine lens AR (Bos taurus, UniProt P16116); experiment: Kinetic parameters of substrate reduction by AR (double reciprocal plots); format: biochemical; conditions: 8 mU purified AR, pH 6.8, 37°C
# T2 construct: AR was purified from bovine lens to electrophoretic homogeneity as described; from tissue; host or cells: bovine lens
# Description: as §1, §2
# Figure 1 Double reciprocal plots for reduction of GAL, HNE and GS-HNE by bovine lens AR. Double reciprocal plots of initial rate measurements using of GAL (diamonds), HNE (squares) and GS-HNE (circles) as substrates. The assays were performed in standard conditions using 8 mU of purified AR. Error bars represent the standard deviations from at least three independent measurements.
# human skeletal muscle AR = system: human skeletal muscle AR; parameters: method as in PMID 9890881, PMID 7599164; conditions: human skeletal muscle enzyme; cited from earlier work
# [4] = system: human placental recombinant AR; parameters: method as in PMID 9890881, PMID 7599164; conditions: human placental recombinant enzyme; cited from earlier work
# AR from bovine lens = system: AR from bovine lens; parameters: method as in PMID 8554593, PMID 9445372; conditions: pH 6.0; cited from earlier work
# AR from bovine heart = system: AR from bovine heart; parameters: method as in PMID 8554593, PMID 9445372; conditions: pH 6.0; cited from earlier work
smiles,measurement,setting,value
O=c1cc(-c2ccccc2)nc2cccc(O)n12 [Compound 3],inhibitory action on all the tested substrates (in words),purified bovine lens AR [1],inhibits the AR catalyzed reduction of all the tested substrates
O=C(O)c1cn(Cc2ccccc2)c2ccnn2c1=O [Compound 18],inhibition of the AR catalyzed reduction of GS-HNE (in words),"purified bovine lens AR [2]; 0.11 mM GS-HNE, Figure 5","able to inhibit, to a different extent"
same,"type of inhibition, glucose reduction","purified bovine lens AR [3]; 47 µM inhibitor, double reciprocal plots",competitive inhibition
"NC(=O)[C@H](O)CO [Compound 21, D-Glyceramide]",IC50,"purified bovine lens AR [1]; GAL as substrate, read-out: IC50 with GAL as substrate",~10 mM
same,IC50,"purified bovine lens AR [2]; 0.11 mM GS-HNE as substrate, read-out: IC50, reduction of GS-HNE",~8 mM
same,differential inhibition glucose/HNE (in words),"purified bovine lens AR [3]; 7 mM D-glucose vs 0.11 mM HNE, Figure 3",observed only at rather high concentrations
"NC(=O)[C@H](O)[C@@H](O)[C@H](O)[C@H](O)CO [Compound 26, D gluconamide, reference compound]",GAL/HNE differential inhibition (percentage inhibition with GAL minus percentage inhibition with HNE),purified bovine lens AR [1],significant
same,effect on glucose reduction,purified bovine lens AR [3]; data not shown,no effect
"O=C1NC(=O)[C@@]2(CCOc3ccc(F)cc32)N1 [Compound 29, Sorbinil]",GAL/HNE differential inhibition (percentage inhibition with GAL minus percentage inhibition with HNE),purified bovine lens AR [1],negligible
same,inhibitory action on all the tested substrates (in words),purified bovine lens AR [1],potent inhibitory action on all the tested substrates
"CC(/C=C1\SC(=S)N(CC(=O)O)C1=O)=C\c1ccccc1 [Compound 30, Epalrestat]",IC50,purified bovine lens AR [1],0.0005 mM
"O=C[C@@H](O)CO [GAL, D, L-glyceraldehyde]",Km,bovine lens AR,39 ± 4 µM
same,k cat,bovine lens AR,0.783 ± 0.05 s⁻¹
"CCCCCC(O)C(CC=O)SC[C@H](NC(=O)CC[C@H](N)C(=O)O)C(=O)NCC(=O)O (stereo partly drawn) [GS-HNE, 3-glutathionyl-4-hydroxy-nonanal]",Km,bovine lens AR,105 ± 6 µM
same,k cat,bovine lens AR,0.683 ± 0.033 s⁻¹
"CCCCCC(O)/C=C/C=O (stereo not drawn) [HNE, 4-hydroxy-2,3-nonenal]",Km,bovine lens AR,37 ± 1 µM
same,k cat,bovine lens AR,0.8 ± 0.017 s⁻¹
same,Km,human skeletal muscle AR,22 µM
same,Km,[4],28 ± 9 µM
same,Km,AR from bovine lens,8.8 ± 0.9 µM
same,Km,AR from bovine heart,7 ± 2 µM
